Data published in the NIST ThermoML archive (doi:10.1021/acs.jced.8b00554).

Assay: xn = mol fraction of the nth substance listed
Conditions: Liquid, Vibrating tube method

CCCCCCCCCC [decane] + CCCO
mass density [kg/m3]
Conditions	343.15 K	353.15 K
100 kPa, x2 = 0.1391	687.56	676.32
100 kPa, x2 = 0.1907	688.32	676.49
100 kPa, x2 = 0.3001	690.77	678.11
100 kPa, x2 = 0.4326	694.55	680.77
100 kPa, x2 = 0.6863	710.6	696.41
100 kPa, x2 = 0.8711	732.51	719.28
1000 kPa, x2 = 0.1391	–	678.16
1000 kPa, x2 = 0.1907	–	678.39
1000 kPa, x2 = 0.8711	–	721.12
1010 kPa, x2 = 0.1391	689.22	–
1010 kPa, x2 = 0.1907	690.02	–
1010 kPa, x2 = 0.3001	692.37	679.67
1010 kPa, x2 = 0.4326	696.46	–
1010 kPa, x2 = 0.6863	712.46	698.52
1010 kPa, x2 = 0.8711	734.14	–
1020 kPa, x2 = 0.4326	–	682.95
2000 kPa, x2 = 0.6863	713.55	–
2010 kPa, x2 = 0.1391	–	679.31
2010 kPa, x2 = 0.1907	691.1	–
2010 kPa, x2 = 0.3001	693.48	680.84
2010 kPa, x2 = 0.6863	–	699.68
2010 kPa, x2 = 0.8711	–	722.21
2020 kPa, x2 = 0.1391	690.3	–
2020 kPa, x2 = 0.1907	–	679.54
2020 kPa, x2 = 0.4326	697.54	684.1
2020 kPa, x2 = 0.8711	735.16	–
3000 kPa, x2 = 0.1907	–	680.66
3000 kPa, x2 = 0.3001	–	681.96
3010 kPa, x2 = 0.1391	691.36	–
3010 kPa, x2 = 0.1907	692.15	–
3010 kPa, x2 = 0.3001	694.52	–
3010 kPa, x2 = 0.6863	–	700.85
3010 kPa, x2 = 0.8711	736.2	–
3020 kPa, x2 = 0.1391	–	680.43
3020 kPa, x2 = 0.4326	698.61	685.26
3020 kPa, x2 = 0.6863	714.64	–
3020 kPa, x2 = 0.8711	–	723.32
4000 kPa, x2 = 0.1391	692.41	–
4000 kPa, x2 = 0.4326	–	686.44
4000 kPa, x2 = 0.6863	715.75	–
4000 kPa, x2 = 0.8711	737.27	–
4010 kPa, x2 = 0.1391	–	681.55
4010 kPa, x2 = 0.1907	–	681.83
4010 kPa, x2 = 0.3001	–	683.13
4010 kPa, x2 = 0.6863	–	702.05
4020 kPa, x2 = 0.1907	693.23	–
4020 kPa, x2 = 0.3001	695.6	–
4020 kPa, x2 = 0.4326	699.72	–
4020 kPa, x2 = 0.8711	–	724.45
5000 kPa, x2 = 0.4326	700.81	–
5000 kPa, x2 = 0.8711	–	725.63
5010 kPa, x2 = 0.1391	–	682.67
5010 kPa, x2 = 0.1907	–	682.92
5010 kPa, x2 = 0.3001	696.69	684.29
5010 kPa, x2 = 0.4326	–	687.63
5010 kPa, x2 = 0.6863	716.84	–
5020 kPa, x2 = 0.1391	693.45	–
5020 kPa, x2 = 0.1907	694.27	–
5020 kPa, x2 = 0.6863	–	703.25
5020 kPa, x2 = 0.8711	738.33	–
6000 kPa, x2 = 0.6863	–	704.42
6010 kPa, x2 = 0.1391	–	683.79
6010 kPa, x2 = 0.1907	695.3	684.03
6010 kPa, x2 = 0.4326	701.9	688.8
6010 kPa, x2 = 0.6863	717.93	–
6010 kPa, x2 = 0.8711	739.41	–
6020 kPa, x2 = 0.1391	694.49	–
6020 kPa, x2 = 0.3001	697.74	685.42
6020 kPa, x2 = 0.8711	–	726.78
7000 kPa, x2 = 0.4326	702.99	–
7000 kPa, x2 = 0.8711	740.46	–
7010 kPa, x2 = 0.1391	695.53	–
7010 kPa, x2 = 0.1907	696.35	–
7010 kPa, x2 = 0.3001	698.82	686.6
7010 kPa, x2 = 0.4326	–	690
7010 kPa, x2 = 0.6863	719.02	–
7020 kPa, x2 = 0.1391	–	684.92
7020 kPa, x2 = 0.1907	–	685.14
7020 kPa, x2 = 0.6863	–	705.63
7020 kPa, x2 = 0.8711	–	727.93
8000 kPa, x2 = 0.1907	697.42	–
8000 kPa, x2 = 0.3001	–	687.74
8000 kPa, x2 = 0.8711	741.52	–
8010 kPa, x2 = 0.1391	696.59	686.06
8010 kPa, x2 = 0.1907	–	686.32
8010 kPa, x2 = 0.4326	–	691.17
8010 kPa, x2 = 0.6863	720.12	706.82
8010 kPa, x2 = 0.8711	–	729.07
8020 kPa, x2 = 0.3001	699.88	–
8020 kPa, x2 = 0.4326	704.06	–
9000 kPa, x2 = 0.1907	698.46	–
9000 kPa, x2 = 0.6863	–	708.03
9010 kPa, x2 = 0.1391	697.61	–
9010 kPa, x2 = 0.3001	700.95	–
9010 kPa, x2 = 0.4326	–	692.36
9010 kPa, x2 = 0.8711	742.57	730.22
9020 kPa, x2 = 0.1391	–	687.14
9020 kPa, x2 = 0.1907	–	687.44
9020 kPa, x2 = 0.3001	–	688.92
9020 kPa, x2 = 0.4326	705.14	–
9020 kPa, x2 = 0.6863	721.21	–
10000 kPa, x2 = 0.4326	706.23	693.57
10000 kPa, x2 = 0.6863	–	709.2
10010 kPa, x2 = 0.1391	698.62	688.25
10010 kPa, x2 = 0.3001	702.02	–
10010 kPa, x2 = 0.6863	722.27	–
10010 kPa, x2 = 0.8711	743.61	–
10020 kPa, x2 = 0.1907	699.47	–
11010 kPa, x2 = 0.1391	699.66	–
11010 kPa, x2 = 0.1907	700.5	–
11010 kPa, x2 = 0.4326	707.27	–
11010 kPa, x2 = 0.8711	744.65	–
11020 kPa, x2 = 0.3001	703.07	–
11020 kPa, x2 = 0.6863	723.34	–
12000 kPa, x2 = 0.4326	708.34	–
12000 kPa, x2 = 0.8711	745.65	–
12010 kPa, x2 = 0.1907	701.55	–
12010 kPa, x2 = 0.3001	704.1	–
12020 kPa, x2 = 0.1391	700.67	–
12020 kPa, x2 = 0.6863	724.37	–
13000 kPa, x2 = 0.1391	701.67	–
13000 kPa, x2 = 0.6863	725.42	–
13000 kPa, x2 = 0.8711	746.64	–
13010 kPa, x2 = 0.3001	705.15	–
13010 kPa, x2 = 0.4326	709.37	–
13020 kPa, x2 = 0.1907	702.55	–
14000 kPa, x2 = 0.3001	706.16	–
14000 kPa, x2 = 0.4326	710.39	–
14000 kPa, x2 = 0.6863	726.44	–
14000 kPa, x2 = 0.8711	747.65	–
14010 kPa, x2 = 0.1391	702.65	–
14020 kPa, x2 = 0.1907	703.54	–
15000 kPa, x2 = 0.1391	703.58	–
15000 kPa, x2 = 0.1907	704.5	–
15000 kPa, x2 = 0.6863	727.44	–
15010 kPa, x2 = 0.4326	711.38	–
15010 kPa, x2 = 0.8711	748.62	–
15020 kPa, x2 = 0.3001	707.12	–
16000 kPa, x2 = 0.6863	728.43	–
16000 kPa, x2 = 0.8711	749.58	–
16010 kPa, x2 = 0.1391	704.52	–
16010 kPa, x2 = 0.1907	705.46	–
16010 kPa, x2 = 0.3001	708.12	–
16020 kPa, x2 = 0.4326	712.37	–
17000 kPa, x2 = 0.1907	706.43	–
17000 kPa, x2 = 0.3001	709.07	–
17000 kPa, x2 = 0.4326	713.3	–
17010 kPa, x2 = 0.1391	705.45	–
17010 kPa, x2 = 0.6863	729.39	–
17010 kPa, x2 = 0.8711	750.52	–
18000 kPa, x2 = 0.6863	730.34	–
18010 kPa, x2 = 0.1907	707.33	–
18010 kPa, x2 = 0.3001	709.98	–
18010 kPa, x2 = 0.4326	714.25	–
18010 kPa, x2 = 0.8711	751.45	–
18020 kPa, x2 = 0.1391	706.37	–
19010 kPa, x2 = 0.1391	707.22	–
19010 kPa, x2 = 0.3001	710.9	–
19010 kPa, x2 = 0.4326	715.15	–
19010 kPa, x2 = 0.6863	731.24	–
19010 kPa, x2 = 0.8711	752.35	–
19020 kPa, x2 = 0.1907	708.2	–
20000 kPa, x2 = 0.1391	708.05	–
20000 kPa, x2 = 0.1907	709.04	–
20000 kPa, x2 = 0.8711	753.23	–
20010 kPa, x2 = 0.4326	716.08	–
20010 kPa, x2 = 0.6863	732.18	–
20020 kPa, x2 = 0.3001	711.75	–
